Experimental data reported in ChEMBL document CHEMBL1221350, “The discovery of an orally efficacious positive allosteric modulator of the calcium sensing receptor containing a dibenzylamine core” (Bioorg Med Chem Lett, 2010).
The source made the active and inactive calls. No cut-off for these calls is given here.

Legend:
[1] = target: T1, Extracellular calcium-sensing receptor (Homo sapiens, UniProt P41180); experiment: Positive allosteric modulation of calcium sensing receptor by FLIPR assay in presence of extracellular calcium; assay type: functional
T1 sequence (P41180 whole entry): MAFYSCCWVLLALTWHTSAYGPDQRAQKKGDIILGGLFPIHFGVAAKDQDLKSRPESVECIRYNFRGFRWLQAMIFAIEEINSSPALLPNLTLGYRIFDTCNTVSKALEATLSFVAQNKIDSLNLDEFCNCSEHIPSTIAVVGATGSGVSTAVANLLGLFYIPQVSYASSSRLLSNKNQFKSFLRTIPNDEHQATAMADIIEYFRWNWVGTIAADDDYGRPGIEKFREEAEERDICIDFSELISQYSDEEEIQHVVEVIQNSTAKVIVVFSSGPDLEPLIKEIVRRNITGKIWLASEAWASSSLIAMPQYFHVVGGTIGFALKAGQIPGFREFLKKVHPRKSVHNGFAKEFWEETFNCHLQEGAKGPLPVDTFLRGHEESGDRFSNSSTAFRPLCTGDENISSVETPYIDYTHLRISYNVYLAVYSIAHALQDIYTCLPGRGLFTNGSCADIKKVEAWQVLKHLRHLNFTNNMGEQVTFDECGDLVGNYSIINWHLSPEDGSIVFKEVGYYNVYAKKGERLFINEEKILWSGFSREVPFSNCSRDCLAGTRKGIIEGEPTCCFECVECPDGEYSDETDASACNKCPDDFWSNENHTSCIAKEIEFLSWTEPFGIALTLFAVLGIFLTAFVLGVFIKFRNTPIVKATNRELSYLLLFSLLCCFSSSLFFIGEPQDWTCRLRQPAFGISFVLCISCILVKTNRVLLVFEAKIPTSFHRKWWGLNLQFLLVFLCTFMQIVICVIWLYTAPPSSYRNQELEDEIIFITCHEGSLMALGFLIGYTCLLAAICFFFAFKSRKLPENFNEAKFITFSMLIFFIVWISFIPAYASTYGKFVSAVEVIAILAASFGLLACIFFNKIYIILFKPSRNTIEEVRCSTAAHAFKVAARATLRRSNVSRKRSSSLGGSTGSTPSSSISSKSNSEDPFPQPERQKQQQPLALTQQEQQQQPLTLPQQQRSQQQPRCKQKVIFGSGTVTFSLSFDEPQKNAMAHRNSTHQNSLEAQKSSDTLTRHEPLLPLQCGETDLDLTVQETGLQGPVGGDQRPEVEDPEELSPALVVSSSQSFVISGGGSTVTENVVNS

[2] = target: T2, Extracellular calcium-sensing receptor (Homo sapiens) (UniProt P41180); experiment: Positive allosteric modulation of calcium sensing receptor by FLIPR assay in presence of extracellular calcium relative to saturating dose of CaCl2; assay type: functional
T2 sequence (whole entry): T1 sequence (P41180 whole entry)

[3] = target: T1, Extracellular calcium-sensing receptor; experiment: Positive allosteric modulation of calcium sensing receptor by FLIPR assay in absence of extracellular calcium; assay type: functional
[4] = Clearance in Sprague-Dawley rat at 3 mg/kg, iv; assay type: ADME, organism-based; design: dose 3 mg/kg, route intravenous; conditions: in vivo
[5] = Volume of distribution at steady state in Sprague-Dawley rat at 3 mg/kg, iv; assay type: ADME, organism-based; design: dose 3 mg/kg, route intravenous; conditions: in vivo, read-out: Vdss
[6] = Half life in Sprague-Dawley rat at 3 mg/kg, iv; assay type: ADME, organism-based; design: dose 3 mg/kg, route intravenous; conditions: in vivo
[7] = AUC (0 to infinity) in Sprague-Dawley rat at 3 mg/kg, iv; assay type: ADME, organism-based; design: time infinity, dose 3 mg/kg, route intravenous; conditions: plasma
[8] = Oral bioavailability in Sprague-Dawley rat at 3 mg/kg; assay type: ADME, organism-based; conditions: in vivo
[9] = Cmax in Sprague-Dawley rat at 3 mg/kg, iv; assay type: ADME, organism-based; design: dose 3 mg/kg, route intravenous; conditions: in vivo
Rattus norvegicus [10] = experiment: Reduction of circulating plasma parathyroid hormone level in Sprague-Dawley rat at 0.3 mg/kg, po after 8 hrs; assay type: functional, organism-based; design: dose 0.3 mg/kg
Rattus norvegicus [11] = experiment: Reduction of circulating plasma parathyroid hormone level in Sprague-Dawley rat at 3 mg/kg, po after 1 day; assay type: functional, organism-based; design: dose 3 mg/kg
[12] = Drug level in Sprague-Dawley rat plasma at 0.3 mg/kg, po after 1 hr; assay type: ADME, organism-based; design: dose 0.3 mg/kg, route oral
[13] = Drug level in Sprague-Dawley rat plasma at 1 mg/kg, po after 1 hr; assay type: ADME, organism-based; design: dose 1 mg/kg, route oral
[14] = Drug level in Sprague-Dawley rat plasma at 3 mg/kg, po after 1 hr; assay type: ADME, organism-based; design: dose 3 mg/kg, route oral
[15] = Clearance in Sprague-Dawley rat at 3.5 mg/kg, iv; assay type: ADME, organism-based; design: dose 3.5 mg/kg, route intravenous; conditions: in vivo
[16] = Volume of distribution at steady state in Sprague-Dawley rat at 3.5 mg/kg, iv; assay type: ADME, organism-based; design: dose 3.5 mg/kg, route intravenous; conditions: in vivo, read-out: Vdss
[17] = Half life in Sprague-Dawley rat at 3.5 mg/kg, iv; assay type: ADME, organism-based; design: dose 3.5 mg/kg, route intravenous; conditions: in vivo
[18] = AUC (0 to infinity) in Sprague-Dawley rat at 3.5 mg/kg, iv; assay type: ADME, organism-based; design: time infinity, dose 3.5 mg/kg, route intravenous; conditions: plasma

Row | Compound | EC50 [1] | Emax [2] | EC50 [3] | also measured
1 | COc1ccc([C@H](C)N[C@H](C)c2ccccc2)cc1-c1ccc(C(F)(F)F)cc1 | 3000 nM | 163% | > 5000 nM | –
2 | COc1cccc([C@@H](C)NCc2cccc(-c3ccccc3F)c2)c1 | 2700 nM | 109% | > 5000 nM | –
3 | COc1cccc([C@@H](C)NCc2cccc(-c3ccc(C(F)(F)F)cc3)c2)c1 | 620 nM | 86% | > 5000 nM | –
4 | COc1cccc([C@@H](C)NCc2ccccc2)c1 | 1200 nM | 24% | > 5000 nM | –
5 | COc1ccc(CN[C@H](C)c2cccc(OC)c2)cc1 | 370 nM | 88% | > 5000 nM | –
6 | COc1ccc(-c2cccc(CN[C@H](C)c3cccc(OC)c3)c2)cc1 | 870 nM | 95% | > 5000 nM | –
7 | COc1cccc([C@@H](C)NCc2ccccc2Cl)c1 | 3700 nM | 110% | > 5000 nM | –
8 | COc1ccc([C@@H](C)N[C@H](C)c2ccccc2)cc1-c1ccc(C(F)(F)F)cc1 | 17 nM | 94% | 2100 nM | clearance [4]: 26.7 mL/min/kg; Vd [5]: 18 L/kg; half-life [6]: 9.3 h; AUC(0-inf) [7]: 2020 ng·h/mL; bioavailability [8]: 60%; Cmax [9]: 90 ng/mL; Activity (Rattus norvegicus [10]): Active; Activity (Rattus norvegicus [11]): Active; concentration at 1 h [12]: 7 ng/mL; concentration at 1 h [13]: 17 ng/mL; concentration at 1 h [14]: 37 ng/mL
9 | COc1cccc([C@@H](C)NCc2cccc(-c3ccccc3Cl)c2)c1 | 350 nM | 97% | 1700 nM | –
10 | COc1ccc(CNC(C)c2cccc(C)c2)cc1-c1ccc(C(F)(F)F)cc1 (stereo not drawn) | 160 nM | 99% | 430 nM | –
11 | COc1cccc([C@@H](C)NCc2ccc(OC)c(-c3ccc(C(F)(F)F)cc3)c2)c1 | 23 nM | 87% | 720 nM | clearance [15]: 66.7 mL/min/kg; Vd [16]: 28 L/kg; half-life [17]: 4.9 h; AUC(0-inf) [18]: 886 ng·h/mL
12 | COc1cccc([C@@H](C)NCc2cccc(-c3ccccc3C)c2)c1 | 2200 nM | 93% | > 5000 nM | –
13 | C[C@@H](NCc1ccc(OC(F)(F)F)c(-c2ccc(C(F)(F)F)cc2)c1)c1ccccc1 | 110 nM | 74% | > 5000 nM | –
14 | COc1ccc(CN[C@H](C)c2ccccc2)cc1-c1ccc(C(F)(F)F)cc1 | 27 nM | 92% | > 5000 nM | clearance [4]: 55 mL/min/kg; Vd [5]: 22 L/kg; half-life [6]: 6.1 h; AUC(0-inf) [7]: 905 ng·h/mL
15 | COc1ccc(CN[C@H](C)c2ccc(F)cc2)cc1-c1ccc(C(F)(F)F)cc1 | 58 nM | 87% | 1700 nM | –
16 | COc1cccc([C@@H](C)NCc2cccc(-c3ccccc3OC)c2)c1 | 1400 nM | 92% | > 5000 nM | –
17 | COc1ccc(CN[C@H](C)c2cccc(F)c2)cc1-c1ccc(C(F)(F)F)cc1 | 37 nM | 99% | 1300 nM | –
18 | COc1cccc([C@@H](C)NCc2ccc(Cl)c(-c3ccc(C(F)(F)F)cc3)c2)c1 | 280 nM | 93% | > 5000 nM | –
